From patent US10087469B2, “Method of producing sugar solution, sugar solution, and method of producing ethanol” (Toray Industries, Inc., priority 2012, dated 2018) come the findings set out here.

The subject of this assay is Pichia stipitis NBRC1687 strain. The assay can be described thus: Growth test of Pichia stipitis using model sugar solution (YPDX medium with additive). The assay is classed as cell-based. Conditions: for growth inhibitory effect compared with coumaric acid: particularly in consumption rate of glucose. Also on record: Xylose concentration in the medium / Glucose concentration in the medium: unit not given here. The method, then: In main culture of “A. Growth Test of Pichia Stipitis using Model Sugar solution” described below, any one of coumaramide, coumaric acid, and ferulamide was added in a concentration of 2 ppm to 200 ppm as an additive in a medium, and the medium was subjected to a growth test. As a positive control, a YPDX medium free of an additive was subjected to the same test.
A. Growth Test of Pichia Stipitis Using Model Sugar Solution
A Pichia stipitis NBRC1687 strain was statically cultured at 25° C. in a YPDX agar medium produced by adding 2% agar to a YPDX medium shown in Table 3 below (prepreculture). One of colonies formed on the agar medium was inoculated into 10 mL of the YPDX medium with a platinum loop, and cultured at 25° C. and 120 spm in a test tube with a volume of 20 mL for 48 hours under shaking (preculture). One mL of medium after the preculture was added to 9 mL of YPDX medium, and culture was further continued at 25° C. and 60 spm in a test tube with a volume of 20 mL (main culture). 0, 24, and 48 hours after initiation of the culture, sampling was performed, the monosaccharide concentration and the absorbance (OD660) were measured. Thus, growth of fungus bodies was observed.

The mark [1] stands for this setting: additive 2 ppm, 0 h of main culture.
[2] abbreviates: additive 2 ppm, 24 h of main culture.
[3] abbreviates: additive 2 ppm, 48 h of main culture.
Where [4] appears, read: additive 20 ppm, 0 h of main culture.
Setting [5] is: additive 20 ppm, 24 h of main culture.
Setting [6] is: additive 20 ppm, 48 h of main culture.
Where [7] appears, read: additive 200 ppm, 0 h of main culture.
Setting [8] is: additive 200 ppm, 24 h of main culture.
The mark [9] stands for this setting: additive 200 ppm, 48 h of main culture.

With `NC(=O)/C=C/c1ccc(O)cc1` [Coumaramide, coumaramide], the “fermentation inhibitor in the culture of Pichia stipitis” value is reported as “fermentation inhibitors” and the “growth inhibitory effect compared with coumaric acid” value is given as “superior to coumaric acid in growth inhibitory”. Under setting [1], the “Glucose concentration in the medium” value is given as 10 and the “Xylose concentration in the medium” value is on record as 10. Also, under setting [2], the “Glucose concentration in the medium” value was 2.3 and the “Xylose concentration in the medium” value was 2.3. For the same compound, under setting [3], the “Glucose concentration in the medium” value worked out at 0 and the “Xylose concentration in the medium” value is 0. For the same compound, under setting [4], the “Glucose concentration in the medium” value is reported as 10 and the “Xylose concentration in the medium” value came out at 10. In addition, under setting [5], the “Glucose concentration in the medium” value is 4.82 and the “Xylose concentration in the medium” value came to 9.7. For the same compound, under setting [6], the “Glucose concentration in the medium” value came out at 0 and the “Xylose concentration in the medium” value turned out to be 0. In addition, under setting [7], the “Glucose concentration in the medium” value worked out at 10 and the “Xylose concentration in the medium” value was found to be 10. In addition, under setting [8], the “Glucose concentration in the medium” value came out at 5.9 and the “Xylose concentration in the medium” value stood at 9.5. For the same compound, under setting [9], the “Glucose concentration in the medium” value was 0 and the “Xylose concentration in the medium” value is 0.4.
With `O=C(O)/C=C/c1ccc(O)cc1` [Coumaric Acid, coumaric acid], the “Glucose concentration in the medium” value reads like this: under setting [1], 10; under setting [2], 2.6; under setting [3], 0; under setting [4], 10; under setting [5], 2.6; under setting [6], 0. In addition, the “Glucose concentration in the medium” value stood at 10 under setting [7], 3.6 under setting [8] and 0 under setting [9]. The “Xylose concentration in the medium” value by setting is: under setting [1], 10; under setting [2], 2.6; under setting [3], 0; under setting [4], 10; under setting [5], 8.7; under setting [6], 0. Further, the “Xylose concentration in the medium” value came out at 10 under setting [7], 9.2 under setting [8] and 0 under setting [9].
Consider `COc1cc(/C=C/C(N)=O)ccc1O` [Ferulamide, ferulamide], for which the “fermentation inhibitor in the culture of Pichia stipitis” value is given as “fermentation inhibitors” and the “growth inhibitory effect compared with coumaric acid” value is on record as “superior to coumaric acid in growth inhibitory”. Further, under setting [1], the “Glucose concentration in the medium” value was found to be 10 and the “Xylose concentration in the medium” value is reported as 10. In addition, under setting [2], the “Glucose concentration in the medium” value came to 2.3 and the “Xylose concentration in the medium” value came out at 2.3. Moreover, under setting [3], the “Glucose concentration in the medium” value was found to be 0 and the “Xylose concentration in the medium” value is given as 0. For the same compound, under setting [4], the “Glucose concentration in the medium” value turned out to be 10 and the “Xylose concentration in the medium” value is 10. Moreover, under setting [5], the “Glucose concentration in the medium” value is recorded as 6.6 and the “Xylose concentration in the medium” value came out at 9.3. For the same compound, under setting [6], the “Glucose concentration in the medium” value was 0 and the “Xylose concentration in the medium” value stood at 0. Further, under setting [7], the “Glucose concentration in the medium” value amounted to 10 and the “Xylose concentration in the medium” value was 10. Further, under setting [8], the “Glucose concentration in the medium” value came to 6.7 and the “Xylose concentration in the medium” value was 9.7. Moreover, under setting [9], the “Glucose concentration in the medium” value is 0 and the “Xylose concentration in the medium” value is 5.2.
